Measurements from PubChem BioAssay (NCI).
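Step 1: Grow cells in 96-well plates. Step 2: Expose to compound for 48 hours at 5 concentrations. Step 3: Interpolate endpoints linearly; if unreached, use highest concentration. Definition used: TGI = concentration required for complete inhibition of growth.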

Columns and labels:
Assay in all cases: NCI tumour cell line growth inhibition, 48 h
786-0 renal = tested on: 786-0 renal
A498 renal = tested on: A498 renal
A549 NSCLC = tested on: A549 NSCLC
ACHN renal = tested on: ACHN renal
CAKI-1 renal = tested on: CAKI-1 renal
CCRF-CEM leukemia = tested on: CCRF-CEM leukemia
COLO 205 colon = tested on: COLO 205 colon
DLD-1 colon = tested on: DLD-1 colon
DMS 114 small cell lung = tested on: DMS 114 small cell lung
DMS 273 small cell lung = tested on: DMS 273 small cell lung
EKVX NSCLC = tested on: EKVX NSCLC
HCT-116 colon = tested on: HCT-116 colon
HCT-15 colon = tested on: HCT-15 colon
HL-60(TB) leukemia = tested on: HL-60(TB) leukemia
HOP-18 NSCLC = tested on: HOP-18 NSCLC
HOP-62 NSCLC = tested on: HOP-62 NSCLC
HOP-92 NSCLC = tested on: HOP-92 NSCLC
HT29 colon = tested on: HT29 colon
IGROV1 ovarian = tested on: IGROV1 ovarian
K-562 leukemia = tested on: K-562 leukemia
KM12 colon = tested on: KM12 colon
KM20L2 colon = tested on: KM20L2 colon
LOX IMVI melanoma = tested on: LOX IMVI melanoma
LXFL 529 NSCLC = tested on: LXFL 529 NSCLC
M14 melanoma = tested on: M14 melanoma
M19-MEL melanoma = tested on: M19-MEL melanoma
MALME-3M melanoma = tested on: MALME-3M melanoma
MOLT-4 leukemia = tested on: MOLT-4 leukemia
NCI-H226 lung = tested on: NCI-H226 lung
NCI-H23 lung = tested on: NCI-H23 lung
NCI-H460 lung = tested on: NCI-H460 lung
NCI-H522 lung = tested on: NCI-H522 lung
OVCAR-3 ovarian = tested on: OVCAR-3 ovarian
OVCAR-4 ovarian = tested on: OVCAR-4 ovarian
OVCAR-5 ovarian = tested on: OVCAR-5 ovarian
OVCAR-8 ovarian = tested on: OVCAR-8 ovarian
RPMI-8226 leukemia = tested on: RPMI-8226 leukemia
RXF 393 renal = tested on: RXF 393 renal
SF-268 CNS = tested on: SF-268 CNS
SF-295 CNS = tested on: SF-295 CNS
SF-539 CNS = tested on: SF-539 CNS
SK-MEL-2 melanoma = tested on: SK-MEL-2 melanoma
SK-MEL-28 melanoma = tested on: SK-MEL-28 melanoma
SK-MEL-5 melanoma = tested on: SK-MEL-5 melanoma
SK-OV-3 ovarian = tested on: SK-OV-3 ovarian
SN12C renal = tested on: SN12C renal
SNB-19 CNS = tested on: SNB-19 CNS
SNB-75 CNS = tested on: SNB-75 CNS
SNB-78 CNS = tested on: SNB-78 CNS
SR leukemia = tested on: SR leukemia
SW-620 colon = tested on: SW-620 colon
TK-10 renal = tested on: TK-10 renal
U251 CNS = tested on: U251 CNS
UACC-257 melanoma = tested on: UACC-257 melanoma
UACC-62 melanoma = tested on: UACC-62 melanoma
UO-31 renal = tested on: UO-31 renal
XF 498 CNS = tested on: XF 498 CNS
HCC-2998 colon = tested on: HCC-2998 colon

Measured: TGI

CC(C)(C)N=NC(C)(C)N=C=O
> 100 µM: 786-0 renal | A498 renal | A549 NSCLC | ACHN renal | CAKI-1 renal | CCRF-CEM leukemia | COLO 205 colon | DLD-1 colon | DMS 114 small cell lung | DMS 273 small cell lung | EKVX NSCLC | HCT-116 colon | HCT-15 colon | HL-60(TB) leukemia | HOP-18 NSCLC | HOP-62 NSCLC | HOP-92 NSCLC | HT29 colon | IGROV1 ovarian | K-562 leukemia | KM12 colon | KM20L2 colon | LOX IMVI melanoma | LXFL 529 NSCLC | M14 melanoma | M19-MEL melanoma | MALME-3M melanoma | MOLT-4 leukemia | NCI-H226 lung | NCI-H23 lung | NCI-H460 lung | NCI-H522 lung | OVCAR-3 ovarian | OVCAR-4 ovarian | OVCAR-5 ovarian | OVCAR-8 ovarian | RPMI-8226 leukemia | RXF 393 renal | SF-268 CNS | SF-295 CNS | SF-539 CNS | SK-MEL-2 melanoma | SK-MEL-28 melanoma | SK-MEL-5 melanoma | SK-OV-3 ovarian | SN12C renal | SNB-19 CNS | SNB-75 CNS | SNB-78 CNS | SR leukemia | SW-620 colon | TK-10 renal | U251 CNS | UACC-257 melanoma | UACC-62 melanoma | UO-31 renal | XF 498 CNS

O=c1c2cc3ccccc3n2c(=O)c2cc3ccccc3n12
> 100 µM: 786-0 renal | A498 renal | A549 NSCLC | ACHN renal | CAKI-1 renal | CCRF-CEM leukemia | DLD-1 colon | DMS 114 small cell lung | DMS 273 small cell lung | EKVX NSCLC | HCC-2998 colon | HCT-116 colon | HCT-15 colon | HL-60(TB) leukemia | HOP-18 NSCLC | HOP-92 NSCLC | HT29 colon | K-562 leukemia | KM12 colon | KM20L2 colon | LOX IMVI melanoma | LXFL 529 NSCLC | M14 melanoma | M19-MEL melanoma | MALME-3M melanoma | MOLT-4 leukemia | NCI-H226 lung | NCI-H23 lung | NCI-H460 lung | NCI-H522 lung | OVCAR-3 ovarian | OVCAR-4 ovarian | OVCAR-5 ovarian | OVCAR-8 ovarian | RPMI-8226 leukemia | RXF 393 renal | SF-268 CNS | SF-295 CNS | SF-539 CNS | SK-MEL-2 melanoma | SK-MEL-28 melanoma | SK-MEL-5 melanoma | SN12C renal | SNB-19 CNS | SNB-75 CNS | SNB-78 CNS | SR leukemia | SW-620 colon | TK-10 renal | U251 CNS | UACC-257 melanoma | UACC-62 melanoma | UO-31 renal | XF 498 CNS
